Earlier results, collected in patent US7658956B2, “Erectile dysfunction phyto-nutraceutical synergistic composition” (priority 2006, dated 2010).

What was measured:
[1] = test system: bacterial resistance mechanism (multidrug pump)
[2] = test system: patients with erectile dysfunction; conditions: 30 patients per group
spermatozoa = conditions: in vitro

Compound: COc1cc([C@H]2Oc3cc(-c4cc(=O)c5c(O)cc(O)cc5o4)cc(OC)c3O[C@@H]2CO)ccc1O (racemic) [5′-MHC, 5′-methoxyhydnocarpin]
- accumulation of berberine in the cells ([1]; in the presence of 5′-MHC): strong increase
- activity of herbal Berberine alkaloids under the action of 5′-MHC ([1]; in vitro): strongly potentiated

Compound: C[C@H](CC[C@@]1(O)O[C@H]2C[C@H]3[C@@H]4CC=C5C[C@@H](O[C@@H]6O[C@H](CO)[C@@H](O[C@@H]7O[C@@H](C)[C@H](O)[C@@H](O)[C@H]7O)[C@H](O)[C@H]6O[C@@H]6O[C@@H](C)[C@H](O)[C@@H](O)[C@H]6O)CC[C@]5(C)[C@H]4CC[C@]3(C)[C@H]2[C@@H]1C)CO[C@@H]1O[C@H](CO)[C@@H](O)[C@H](O)[C@H]1O [Protodioscin]
- pro-erectile activity (relaxant effect) (rabbit corpus cavernosum): pro-erectile activity

Compound: O=c1n(CCCN2CCN(c3cccc(Cl)c3)CC2)nc2ccccn12 [trazodone]
- overall therapeutic efficacies on erectile dysfunction [2]: 30%

Compound: Vitamin E
- ROS mediated damage on spermatozoa (spermatozoa): protects against ROS mediated damage
- treated patients who impregnated their spouses (asthenospermic patients; Eleven out of 52 treated patients): 21%
- MDA concentration in spermatozoa (asthenospermic patients; oral, asthenospermic patients): significantly decreased
- sperm motility (asthenospermic patients; oral, asthenospermic patients): improved sperm motility
